{"source": "paper PMC6804079", "about": "“Investigation of 5’-Norcarbocyclic Nucleoside Analogues as Antiprotozoal and Antibacterial Agents” (Molecules, 2019)", "key": {"[1]": {"test_system": "T. b. brucei strain Lister 427 (s427-WT)", "assay": "resazurin EC50 assay, T. b. brucei wild-type bloodstream forms", "format": "cell-based, Trypanosoma brucei brucei", "conditions": "Trypanosoma brucei, 72 h, 48 h + 24 h resazurin, average and SEM, at least three determinations, NE = no effect on cell viability at 100 µM"}, "T. brucei B48": {"test_system": "T. brucei B48", "assay": "microbe, parasite or virus in culture", "format": "cell-based, Trypanosoma brucei brucei", "conditions": "Trypanosoma brucei, read-out: T. Brucei, EC50, B48"}, "[2]": {"test_system": "M. tuberculosis ATCC 25,177 (H37Ra)", "assay": "microbe, parasite or virus in culture", "format": "cell-based, Mycobacterium tuberculosis", "conditions": "Mycobacterium tuberculosis, read-out: M. Tuberculosis 25,177 MIC"}, "[3]": {"test_system": "Trypanosoma and Leishmania", "parameters": "method as in PMID 28571825", "conditions": "equivalent activity against both pathogens; cited from earlier work"}, "U-937 cells": {"test_system": "U-937 cells", "assay": "U-937 cytotoxicity (XTT)", "format": "cell-based", "conditions": "6 days incubation", "method": "The U-937 cells used in the cytotoxicity evaluation were obtained from the AIDS Research and Reference Program. The cells were cultured as indicated by the supplier in RPMI-1640 supplemented with 10% heat inactivated FBS, 1% penicillin/streptomycin solution, and 1% L-glutamine.\nU-937 cells plated at 2.5 × 10^3 cells/well in a volume of 100 µL were incubated with serially diluted test compounds in a volume of 100 µL for 6 days at 37 °C/5% CO2. Following the incubation, the cells were stained by adding 50 μL tetrazolium dye XTT (Sigma) solution at 5 mg/mL to determine cellular viability and read at 460/650 nm on a spectrophotometer. Toxicity values were calculated using linear regression analysis."}, "[4]": {"test_system": "L. mexicana 5FURes (Lmex5FURes)", "assay": "microbe, parasite or virus in culture", "conditions": "Leishmania mexicana, read-out: L. Mexicana 5FUR, EC50", "experimental": "Promastigotes of Leishmania mexicana strain MNY/BZ/62/M379 was cultured in a minimal essential medium, HO-MEMO-MEME, supplemented with 10% FBS and 1% of a penicillin/streptomycin solution (Gibco) as described previously [39] at 25 °C. The L. mexicana 5FURes strain was the same strain but adapted in vitro to high levels of 5FU exactly as described for T. brucei [12].\nThe resazurin assay for L. mexicana promastigotes was performed exactly as for T. b. brucei, except that incubation times of 72 and 48 h were used before and after the addition of resazurin, respectively, due to the slower metabolism of the dye by Leishmania promastigotes [42]."}, "M. tuberculosis H37Rv": {"test_system": "M. tuberculosis H37Rv", "assay": "microbe, parasite or virus in culture", "format": "cell-based", "conditions": "Mycobacterium tuberculosis, control drugs at critical concentrations"}, "T. brucei 2T1 PYR6-5 −/−": {"test_system": "T. brucei 2T1 PYR6-5 −/−", "assay": "microbe, parasite or virus in culture", "format": "cell-based, Trypanosoma brucei brucei", "conditions": "Trypanosoma brucei, read-out: T. Brucei, EC50, 2T1 PYR6-5 −/−"}, "M. tuberculosis MS-115": {"test_system": "M. tuberculosis MS-115", "assay": "microbe, parasite or virus in culture", "format": "cell-based", "conditions": "Mycobacterium tuberculosis, MS115, read-out: M. Tuberculosis MS-115 MIC"}, "Tbb-5FURes": {"test_system": "Tbb-5FURes", "assay": "microbe, parasite or virus in culture", "format": "cell-based, Trypanosoma brucei brucei", "conditions": "Trypanosoma brucei, read-out: T. Brucei, EC50, Tbb-5FURes"}}, "note": "Several values for one entry are separate records, joined by “and”; a condition that tells them apart may be missing. Identical values can stand only once."}
{"molecule": "CCCCCCCCCCCCC#Cc1cn([C@H]2C=C[C@@H](O)C2)c(=O)n([C@H]2C=C[C@@H](O)C2)c1=O", "note": "[Compound 1, 1-[4′-Hydroxy-2′-cyclopenten-1′-yl]-3-(4′′-hydroxy-2′′-cyclopent-en-1′′-yl)-5-tetradecynyluracil]", "values": [{"measurement": "EC50", "setting": "[1]", "result": "8 ± 0.1", "unit": "µM"}, {"measurement": "EC50", "setting": "T. brucei B48", "result": "9 ± 0.1", "unit": "µM"}, {"measurement": "MIC", "setting": "[2]", "result": "250 µM and 117 µg/mL"}, {"measurement": "EC50", "setting": "[3]", "result": "8 to 11.9", "unit": "µM"}, {"measurement": "U-937 Cells TC50", "setting": "U-937 cells", "result": 66.3, "unit": "µM"}, {"measurement": "EC50", "setting": "[4]", "result": "11.4 ± 0.3", "unit": "µM"}, {"measurement": "MIC", "setting": "M. tuberculosis H37Rv", "result": 50, "unit": "µg/mL"}, {"measurement": "EC50", "setting": "T. brucei 2T1 PYR6-5 −/−", "result": "9.2 ± 0.4", "unit": "µM"}, {"measurement": "MIC", "setting": "M. tuberculosis MS-115", "result": "> 50", "unit": "µg/mL"}, {"measurement": "EC50", "setting": "Tbb-5FURes", "result": "7.5 ± 0.1", "unit": "µM"}]}
